# Test results published in patent publication US11999727B2 (Tango Therapeutics, Inc., priority 2020, dated 2024).
# pIC50: −log10 of the molar value.
# How the values were obtained:
# [1] = system: HAP1 MTAP-deleted cell line; assay: Viability assay, MTAP-deleted cell line; assay type: cell-based; details: Homo sapiens, read-out: HAP1 MTAP deleted viability
# From the text: Table 1 additionally indicates IC50 values in a viability assay for the MTAP-deleted cell line (column 10), indicating the effect of treatment with compound on cell survival.
# PRMT5 [2] = target: T1, PRMT5 (Homo sapiens, UniProt O14744); assay: PRMT5 biochemical IC50 assay with SAM as cofactor; details: PRMT5, SAM as cofactor; read-out: SAM IC50
# T1 construct: purchased Viva (custom protein)
# [3] = system: HAP1 MTAP-intact cell line; assay: SDMA in-cell western assay, HAP1 MTAP-intact; assay type: cell-based; details: Homo sapiens, HAP1, SDMA in-cell western, HAP1 MTAP-intact; read-out: MTAP HAP1 intact IC50
# How it was run: (§1)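 Readout: in-cell western detection of SDMA. Cells: HAP1 expressing endogenous MTAP and an MTAP-null HAP1 counterpart. Output: IC50.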
# PRMT5 [4] = target: T1, PRMT5; assay: PRMT5 biochemical IC50 assay with no cofactor; details: PRMT5, no cofactor
# From the text: Table 1 indicates IC50 values (μM) against PRMT5 for exemplary compounds in the presence of SAM as cofactor, with no cofactor, and with MTA as cofactor, respectively (columns 4-6). […] Ki values can be calculated from the IC50 values as described in the Examples section. As detailed in the Examples section, for the assay performed in the presence of SAM, IC50=Ki×1.5 (Ki=IC50/1.5).
# [5] = system: HAP1 MTAP-deleted cell line; assay: SDMA in-cell western assay, HAP1 MTAP-deleted; assay type: cell-based; details: for pIC50: Homo sapiens, HAP1, SDMA in-cell western, HAP1 MTAP-deleted; for MTAP intact/deleted ratio: SDMA in-cell western
# How it was run: as §1
# PRMT5 [6] = target: T1, PRMT5; assay: PRMT5 biochemical IC50 assay with MTA as cofactor; details: PRMT5, MTA as cofactor; read-out: MTA IC50
# [7] = HAP1, viability IC50, MTAP-deleted cell line
# [8] = read-out: HAP 1 MTAP deleted IC50
# [9] = IC50 ratio HAP1 MTAP-intact / HAP1 MTAP-deleted
# [10] = HAP1, viability assay, HAP1 MTAP-deleted
# [11] = read-out: HAP1 MTAP deleted IC50
# [12] = HAP1, viability assay, MTAP-deleted cell line
# T1 sequence (O14744 whole entry): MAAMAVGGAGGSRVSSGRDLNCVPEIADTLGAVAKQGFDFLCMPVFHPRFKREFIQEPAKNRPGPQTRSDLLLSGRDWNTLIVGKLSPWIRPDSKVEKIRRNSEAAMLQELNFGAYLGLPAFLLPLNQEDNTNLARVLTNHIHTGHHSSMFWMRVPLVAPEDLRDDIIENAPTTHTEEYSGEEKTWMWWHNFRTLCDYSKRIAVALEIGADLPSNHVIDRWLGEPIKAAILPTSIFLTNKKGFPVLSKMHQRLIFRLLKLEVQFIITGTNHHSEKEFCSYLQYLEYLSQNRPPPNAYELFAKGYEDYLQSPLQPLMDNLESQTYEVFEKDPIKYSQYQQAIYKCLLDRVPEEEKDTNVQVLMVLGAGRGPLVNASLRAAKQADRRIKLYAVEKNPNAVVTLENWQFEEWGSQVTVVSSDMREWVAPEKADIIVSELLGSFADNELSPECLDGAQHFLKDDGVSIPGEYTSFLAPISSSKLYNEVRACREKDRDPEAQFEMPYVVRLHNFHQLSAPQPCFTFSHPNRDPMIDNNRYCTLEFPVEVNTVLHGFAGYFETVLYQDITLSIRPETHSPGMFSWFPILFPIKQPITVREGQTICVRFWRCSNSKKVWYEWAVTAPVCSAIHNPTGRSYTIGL
# T1 sequence (Q9BQA1 whole entry partner): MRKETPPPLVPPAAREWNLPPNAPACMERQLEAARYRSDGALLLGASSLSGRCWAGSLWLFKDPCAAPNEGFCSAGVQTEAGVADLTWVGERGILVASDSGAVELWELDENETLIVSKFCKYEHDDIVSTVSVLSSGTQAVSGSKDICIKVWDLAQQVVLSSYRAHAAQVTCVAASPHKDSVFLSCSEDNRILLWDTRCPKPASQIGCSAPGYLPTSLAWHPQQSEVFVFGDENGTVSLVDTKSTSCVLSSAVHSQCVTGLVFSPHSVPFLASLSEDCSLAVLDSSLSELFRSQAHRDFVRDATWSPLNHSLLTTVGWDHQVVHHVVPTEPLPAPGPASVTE
structure (smiles),measurement,setting,value
"COc1cc([C@H]2CC[C@H](C)CN2C(=O)C(=O)Nc2cncc(C(N)=O)c2)ccn1 (single isomer, unassigned) [Compound 533]",pIC50,[1]; [7],< 5.00
same,pIC50,PRMT5 [2],< 6.30
same,pIC50,[3],< 6.00
same,pIC50,PRMT5 [4]; read-out: No Cofactor/rel IC50,< 6.30
same,pIC50,[5]; [8],< 6.00
same,MTAP intact/deleted ratio,[5]; [9],C (an IC50 ratio of less than 3 fold)
same,pIC50,PRMT5 [6],< 6.30
"COc1ncc(NC(=O)C(=O)N2C[C@H](C)CC[C@H]2c2ccc(-c3cncs3)cc2)cc1C(N)=O (single isomer, unassigned) [Compound 830, 2-methoxy-5-(2-(5-methyl-2-(4-(thiazol-5-yl)phenyl)piperidin-1-yl)-2-oxoacetamido)nicotinamide]",pIC50,[1]; [10],> 6.00
same,pIC50,PRMT5 [2],6.30 to 7.30
same,pIC50,[3],< 6.00
same,pIC50,PRMT5 [4]; read-out: No Cofactor/rel IC50,6.30 to 7.30
same,pIC50,[5]; [11],> 7.00
same,MTAP intact/deleted ratio,[5]; [9],A (an IC50 ratio greater than or equal to 10 fold)
same,pIC50,PRMT5 [6],> 7.30
"C[C@@H]1CC[C@@H](c2ccc(Cn3cncn3)cc2)N(C(=O)C(=O)Nc2cncc(C(N)=O)c2)C1 (racemic) [Compound 252, rac-5-{2-[(2R,5S)-5-Methyl-2-{4-[(1H-1,2,4-triazol-1-yl)methyl]phenyl}piperidin-1-yl]-2-oxoacetamido}pyridine-3-carboxamide]",pIC50,[1]; [12],< 5.00
same,pIC50,PRMT5 [2],6.30 to 7.30
same,pIC50,[3],< 6.00
same,pIC50,PRMT5 [4]; read-out: No Cofactor/rel IC50,6.30 to 7.30
same,pIC50,[5]; [11],6.00 to 7.00
same,MTAP intact/deleted ratio,[5]; [9],A (an IC50 ratio greater than or equal to 10 fold)
same,pIC50,PRMT5 [6],> 7.30
"Cc1cc(NC(=O)C(=O)N2C[C@@H](C)CC[C@@H]2c2cscn2)cnc1N (single isomer, unassigned) [Compound 1020]",pIC50,[1]; [12],5.00 to 6.00
same,pIC50,PRMT5 [2],< 6.30
same,pIC50,[3],< 6.00
same,pIC50,PRMT5 [4]; read-out: No Cofactor/rel IC50,6.30 to 7.30
same,pIC50,[5]; [8],6.00 to 7.00
same,MTAP intact/deleted ratio,[5]; [9],A (an IC50 ratio greater than or equal to 10 fold)
same,pIC50,PRMT5 [6],> 7.30
"CC(=O)Nc1ccc([C@@H]2CC[C@@H](C)CN2C(=O)C(=O)Nc2cncc(C(N)=O)c2)cn1 (single isomer, unassigned) [Compound 934]",pIC50,[1]; [12],< 5.00
same,pIC50,PRMT5 [2],6.30 to 7.30
same,pIC50,[3],< 6.00
same,pIC50,PRMT5 [4]; read-out: No Cofactor/rel IC50,6.30 to 7.30
same,pIC50,[5]; [8],6.00 to 7.00
same,MTAP intact/deleted ratio,[5]; [9],A (an IC50 ratio greater than or equal to 10 fold)
same,pIC50,PRMT5 [6],> 7.30
"CC(=O)N1CCC(c2cccc(C3CCCCN3C(=O)C(=O)Nc3cncc(C)c3)c2)CC1 (single isomer, unassigned) [Compound 73]",pIC50,[1]; [12],< 5.00
same,pIC50,PRMT5 [2],< 6.30
same,pIC50,[3],< 6.00
same,pIC50,PRMT5 [4]; read-out: No Cofactor/ rel IC50,< 6.30
same,pIC50,[5]; [8],< 6.00
same,MTAP intact/deleted ratio,[5]; [9],C (an IC50 ratio of less than 3 fold)
same,pIC50,PRMT5 [6],< 6.30
"C[C@H]1CC[C@H](c2cccc(Cl)c2)N(C(=O)C(=O)Nc2cnc(N)c(C3CC3)c2)C1 (single isomer, unassigned) [Compound 1119]",pIC50,[1]; [12],> 6.00
same,pIC50,PRMT5 [2],6.30 to 7.30
same,pIC50,[3],6.00 to 7.00
same,pIC50,PRMT5 [4]; read-out: No Cofactor/rel IC50,> 7.30
same,pIC50,[5]; [11],> 7.00
same,MTAP intact/deleted ratio,[5]; IC50 ratio HAP1 MTAP-intact vs HAP1 MTAP-deleted,A (an IC50 ratio greater than or equal to 10 fold)
same,pIC50,PRMT5 [6],> 7.30
"C[C@@H]1CC[C@@H](c2ccccc2)N(C(=O)C(=O)Nc2cncc(C(N)=O)c2)[C@H]1C (single isomer, unassigned) [Compound 482]",pIC50,[1]; [12],> 6.00
same,pIC50,PRMT5 [2],6.30 to 7.30
same,pIC50,[3],< 6.00
same,pIC50,PRMT5 [4]; read-out: No Cofactor/rel IC50,6.30 to 7.30
same,pIC50,[5]; [11],> 7.00
same,MTAP intact/deleted ratio,[5]; [9],A (an IC50 ratio greater than or equal to 10 fold)
same,pIC50,PRMT5 [6],> 7.30
"C[C@H]1CC[C@H](c2ccn(-c3cc[nH]n3)n2)N(C(=O)C(=O)Nc2cncc(C(N)=O)c2)C1 (single isomer, unassigned) [Compound 882]",pIC50,[1]; [10],< 5.00
same,pIC50,PRMT5 [2],< 6.30
same,pIC50,[3],< 6.00
same,pIC50,PRMT5 [4]; read-out: No Cofactor/rel IC50,< 6.30
same,pIC50,[5]; [11],< 6.00
same,MTAP intact/deleted ratio,[5]; [9],C (an IC50 ratio of less than 3 fold)
same,pIC50,PRMT5 [6],< 6.30
"CCc1cc(NC(=O)C(=O)N2C[C@@H](C)CC[C@@H]2c2ccc3c(c2)C(=O)NC3)cnc1N (single isomer, unassigned) [Compound 700]",pIC50,[1]; [7],> 6.00
same,pIC50,PRMT5 [2],6.30 to 7.30
same,pIC50,[3],< 6.00
same,pIC50,PRMT5 [4]; read-out: No Cofactor/rel IC50,> 7.30
same,pIC50,[5]; [8],> 7.00
same,MTAP intact/deleted ratio,[5]; [9],A (an IC50 ratio greater than or equal to 10 fold)
same,pIC50,PRMT5 [6],> 7.30
